According to US11149031B2, “Substituted N-(3-fluoropropyl)-pyrrolidine compounds, processes for their preparation and therapeutic uses thereof” (SANOFI, priority 2016, dated 2021):
Read-outs that look alike come from different tables or passages of the source.

Columns and labels:
[1] = target: His6-ERα298-554 WT (ERα ligand-binding domain) (Homo sapiens (Human), UniProt P03372); experiment: Test A: biochemical antagonist activity, LanthaScreen TR-FRET ERα coactivator assay, WT; details: read-out: Antagonism WT IC50
His6-ERα298-554 WT (ERα ligand-binding domain), sequence (P03372 298-554): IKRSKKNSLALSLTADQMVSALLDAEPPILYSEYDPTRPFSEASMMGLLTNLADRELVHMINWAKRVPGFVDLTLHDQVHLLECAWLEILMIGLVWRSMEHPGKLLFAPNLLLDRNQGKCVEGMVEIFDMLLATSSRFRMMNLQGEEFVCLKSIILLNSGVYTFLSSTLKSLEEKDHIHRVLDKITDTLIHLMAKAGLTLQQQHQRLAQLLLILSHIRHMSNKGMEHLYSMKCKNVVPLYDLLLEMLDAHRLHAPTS
Procedure, shortened: (§1)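 Compounds were added to receptor LBD (0.5 nM), terbium-labelled His6 antibody (0.5 nM), PGC1a coactivator peptide (250 nM) and estradiol at 3 nM or 10 nM. After incubating overnight at room temperature, the 520:495 nm ratio gave IC50 values by four-parameter logistic regression.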

[2] = target: His6-ERα298-554 D538G mutant (ERα ligand-binding domain) (Homo sapiens (Human), UniProt P03372, D538G); experiment: Test A: biochemical antagonist activity, LanthaScreen TR-FRET ERα coactivator assay, D538G mutant; details: read-out: Antagonism D538G IC50
His6-ERα298-554 D538G mutant (ERα ligand-binding domain), sequence (P03372 298-554 D538G): as the sequence (P03372 298-554) above, with D241G counted along it
Procedure, shortened: as §1

[3] = target: His6-ERα298-554 Y537S mutant (ERα ligand-binding domain) (Homo sapiens (Human), UniProt P03372, Y537S); experiment: Test A: biochemical antagonist activity, LanthaScreen TR-FRET ERα coactivator assay, Y537S mutant; details: read-out: Antagonism Y537S IC50
His6-ERα298-554 Y537S mutant (ERα ligand-binding domain), sequence (P03372 298-554 Y537S): as the sequence (P03372 298-554) above, with Y240S counted along it
Procedure, shortened: as §1

[4] = system: MCF7 cells (breast tumor cells) WT; experiment: Test B: cell proliferation/viability assay (CellTiter-Glo) on MCF7 WT; format: cell-based; details: Homo sapiens, MCF7, 168 h, 7 days of compound exposure
Procedure, shortened: (§2)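 MCF7 WT / ER mutant lines (estradiol-independent, Tyr537Ser or Asp538Gly); stripped-serum, phenol red-free MEM; 9 pt 1:5 dil, 3-0.000001 μM final; 7 d; CellTiter-Glo RLU → % viability vs untreated, background-subtracted.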

[5] = system: MCF7 cells expressing mutant estrogen receptor Tyr 537 Ser; experiment: Test B: cell proliferation/viability assay (CellTiter-Glo) on MCF7 Tyr 537 Ser mutant; format: cell-based; details: Homo sapiens, MCF7, 168 h, MCF7 cells expressing ER Tyr 537 Ser mutant, 7 days of compound exposure, read-out: proliferation MCF7 Y537S IC50
Procedure, shortened: as §2

[6] = system: MCF7 cells expressing mutant estrogen receptor Asp 538 Gly; experiment: Test B: cell proliferation/viability assay (CellTiter-Glo) on MCF7 Asp 538 Gly mutant; format: cell-based; details: Homo sapiens, MCF7, 168 h, MCF7 cells expressing ER Asp 538 Gly mutant, 7 days of compound exposure, read-out: proliferation MCF7 D538G IC50
Procedure, shortened: as §2

[7] = target: ERα in MCF7 cells (Homo sapiens (Human), UniProt P03372); experiment: Test C: estrogen receptor degradation activity, ERα in cell western assay in MCF7 cells; format: cell-based; details: for DC50: 4 hours post compound addition, ERα in cell western, read-out: Degradation IC50; for % Degradation at 3 μM: 4 hours, relative to fulvestrant
ERα in MCF7 cells, sequence (P03372 whole entry): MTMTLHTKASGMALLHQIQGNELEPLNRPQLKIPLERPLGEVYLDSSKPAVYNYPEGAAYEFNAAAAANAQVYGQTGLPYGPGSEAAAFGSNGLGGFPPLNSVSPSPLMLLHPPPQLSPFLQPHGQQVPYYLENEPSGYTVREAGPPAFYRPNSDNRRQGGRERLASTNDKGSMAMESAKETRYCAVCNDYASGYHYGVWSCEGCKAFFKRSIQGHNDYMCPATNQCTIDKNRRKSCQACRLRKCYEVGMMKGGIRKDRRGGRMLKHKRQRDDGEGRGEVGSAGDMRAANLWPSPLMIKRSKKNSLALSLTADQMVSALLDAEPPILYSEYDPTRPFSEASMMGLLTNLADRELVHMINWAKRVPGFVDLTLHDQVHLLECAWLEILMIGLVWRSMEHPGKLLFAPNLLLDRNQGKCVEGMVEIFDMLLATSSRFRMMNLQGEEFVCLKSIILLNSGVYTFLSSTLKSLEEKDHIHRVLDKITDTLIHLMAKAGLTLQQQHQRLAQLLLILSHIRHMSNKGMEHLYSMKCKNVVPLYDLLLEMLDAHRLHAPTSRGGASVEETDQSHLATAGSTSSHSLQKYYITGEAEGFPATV
Procedure, shortened: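 Cells seeded in stripped-serum medium are dosed the next day across a nine-concentration series (3 down to 0.000018 μM). Four hours later they are fixed, blocked, probed overnight with anti-ERα antibody, then labelled with an Alexa 488 secondary and a DNA dye before plate scanning.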

[8] = asterisk (*): protocol using 10 nM estradiol

Row | Structure (SMILES) | IC50 ([1]; protocol with 3 nM estradiol) [nM] | IC50 ([2]; protocol with 3 nM estradiol) [nM] | IC50 ([3]; protocol with 3 nM estradiol) [nM] | IC50 [4] [nM] | IC50 [5] [nM] | IC50 [6] [nM] | DC50 [7] [nM] | % Degradation at 3 μM [7] [%] | IC50 [1, 8] [nM] | IC50 [2, 8] [nM] | IC50 [3, 8] [nM]
1 | Oc1cc2c(cc1Cl)C(c1ccc(O[C@H]3CCN(CCCF)C3)cc1)=C(c1ccc3c(c1)CCN3)CCO2 [Example 143, 7-chloro-5-[4-[(3S)-1-(3-fluoropropyl)pyrrolidin-3-yl]oxyphenyl]-4-indolin-5-yl-2,3-dihydro-1-benzoxepin-8-ol] | 464 | 4000 | 4000 | 24 | 357 | 63 | 14 | 74 |  |  | 
2 | Oc1cc2c(cc1Cl)C(c1ccc(O[C@H]3CCN(CCCF)C3)cc1)=C(c1ccc3[nH]ccc3c1)CCO2 [Example 144, 7-chloro-5-[4-[(3S)-1-(3-fluoropropyl)pyrrolidin-3-yl]oxyphenyl]-4-(1H-indol-5-yl)-2,3-dihydro-1-benzoxepin-8-ol] | 528 | 4000 | 4000 | 38 | 653 | 64 | 18 | 75 |  |  | 
3 | Oc1ccc2c(c1)CCCC(c1ccc(SC(F)(F)F)cc1)=C2c1ccc(N[C@H]2CCN(CCCF)C2)cc1 [Example 90, 5-[4-[[(3S)-1-(3-fluoropropyl)pyrrolidin-3-yl]amino]phenyl]-6-[4-(trifluoromethylsulfanyl)phenyl]-8,9-dihydro-7H-benzo[7]annulen-2-ol] |  |  |  | 0.3 | 4 | 0.5 | 0.4 | 91 | 12 | 293 | 165
4 | Oc1ccc2c(c1)SCC(c1ccc(OC(F)(F)F)cc1F)=C2c1ccc(O[C@H]2CCN(CCCF)C2)cc1 [Example 37, 4-[4-[(3S)-1-(3-fluoropropyl)pyrrolidin-3-yl]oxyphenyl]-3-[2-fluoro-4-(trifluoromethoxy)phenyl]-2H-thiochromen-7-ol] | 41 | 745 | 475 | 0.6 | 4 | 0.6 | 3 | 83 |  |  | 
5 | Cc1ccc(C2=C(c3ccc(O[C@H]4CCN(CCCF)C4)cc3)c3cc(F)c(O)cc3OCC2)c(F)c1 [Example 138, 7-fluoro-4-(2-fluoro-4-methyl-phenyl)-5-[4-[(3S)-1-(3-fluoropropyl)pyrrolidin-3-yl]oxyphenyl]-2,3-dihydro-1-benzoxepin-8-ol] | 18 | 360 | 253 | 2 | 51 | 7 | 0.5 | 89 |  |  | 
6 | Oc1ccc2c(c1)OCC(c1ccc(F)cc1Cl)=C2c1ccc(O[C@H]2CCN(CCCF)C2)cc1 [Example 82, 3-(2-chloro-4-fluoro-phenyl)-4-[4-[(3S)-1-(3-fluoropropyl)pyrrolidin-3-yl]oxyphenyl]-2H-chromen-7-ol] |  |  |  | 15 | 18 | 1 | 7 | 86 | 297 | > 4000 | 2290
7 | COc1ccc(C2=C(c3ccc(O[C@H]4CCN(CCCF)C4)cc3)c3ccc(O)cc3SC2)c(F)n1 [Example 45, 3-(2-fluoro-6-methoxy-3-pyridyl)-4-[4-[(3S)-1-(3-fluoropropyl)pyrrolidin-3-yl]oxyphenyl]-2H-thiochromen-7-ol] |  |  |  | 0.1 | 2 | 0.6 | 0.2 | 87 | 1 | 34 | 14
8 | Oc1ccc2c(c1)SCCC(c1ccc(F)c(OC(F)F)c1)=C2c1ccc(O[C@H]2CCN(CCCF)C2)cc1 [Example 188, 4-[3-(difluoromethoxy)-4-fluoro-phenyl]-5-[4-[(3S)-1-(3-fluoropropyl)pyrrolidin-3-yl]oxyphenyl]-2,3-dihydro-1-benzothiepin-8-ol] | 8.2 | 266 | 157 | 0.2 | 4 | 2 | 0.8 | 90 |  |  | 
9 | Oc1ccc2c(c1)SCCC(c1ccc(OC(F)F)c(F)c1)=C2c1ccc(O[C@H]2CCN(CCCF)C2)nc1 [Example 207, 4-[4-(difluoromethoxy)-3-fluoro-phenyl]-5-[6-[(3S)-1-(3-fluoropropyl)pyrrolidin-3-yl]oxy-3-pyridyl]-2,3-dihydro-1-benzothiepin-8-ol] |  |  |  | 0.1 | 2 | 0.3 | 0.5 | 85 | 2 | 9 | 6
10 | O=C1Cc2cc(C3=C(c4ccc(O[C@H]5CCN(CCCF)C5)cc4)c4ccc(O)cc4SC3)ccc2N1 [Example 51, 5-[4-[4-[(3S)-1-(3-fluoropropyl)pyrrolidin-3-yl]oxyphenyl]-7-hydroxy-2H-thiochromen-3-yl]indolin-2-one] |  |  |  | 91 | 230 | 148 | 12 | 85 | 350 | > 4000 | 3600
11 | CCOc1ccc(C2=C(c3cnc(O[C@H]4CCN(CCCF)C4)nc3)c3ccc(O)cc3CCC2)c(F)c1F [Example 246, 6-(4-ethoxy-2,3-difluoro-phenyl)-5-[2-[(3S)-1-(3-fluoropropyl)pyrrolidin-3-yl]oxypyrimidin-5-yl]-8,9-dihydro-7H-benzo[7]annulen-2-ol] |  |  |  | 0.4 | 7 | 0.4 | 0.5 | 82 | 2 | 42 | 26
12 | CS(=O)(=O)c1ccc(C2=C(c3ccc(O[C@H]4CCN(CCCF)C4)cc3)c3ccc(O)cc3SCC2)cc1 [Example 194, 5-[4-[(3S)-1-(3-fluoropropyl)pyrrolidin-3-yl]oxyphenyl]-4-(4-methylsulfonylphenyl)-2,3-dihydro-1-benzothiepin-8-ol] |  |  |  | 0.2 | 3 | 0.4 | 0.2 | 89 | 10 | 206 | 141
13 | CCOc1ccc(C2=C(c3ccc(O[C@H]4CCN(CCCF)C4)cc3)c3ccc(O)cc3SC2)c(F)n1 [Example 27, 3-(6-ethoxy-2-fluoro-3-pyridyl)-4-[4-[(3S)-1-(3-fluoropropyl)pyrrolidin-3-yl]oxyphenyl]-2H-thiochromen-7-ol] |  |  |  | 0.4 | 6 | 2 | 0.6 | 94 | 2 | 38 | 21
14 | [O-][S+]1CCC(c2ccc(OC(F)(F)F)cc2)=C(c2ccc(O[C@H]3CCN(CCCF)C3)cc2)c2ccc(O)cc21 (stereo partly drawn) [Example 225, 5-[4-[(3S)-1-(3-fluoropropyl)pyrrolidin-3-yl]oxyphenyl]-1-oxo-4-[4-(trifluoromethoxy)phenyl]-2,3-dihydro-benzothiepin-8-ol] |  |  |  | 18 | 249 | 36 | 6 | 82 | 750 | > 4000 | > 4000
15 | Cc1ccc(C2=C(c3cnc(O[C@H]4CCN(CCCF)C4)nc3)c3ccc(O)cc3CCC2)c(F)c1 [Example 244, 6-(2-fluoro-4-methyl-phenyl)-5-[2-[(3S)-1-(3-fluoropropyl)pyrrolidin-3-yl]oxypyrimidin-5-yl]-8,9-dihydro-7H-benzo[7]annulen-2-ol] |  |  |  | 0.9 | 6 | 2 | 0.4 | 92 | 3 | 67 | 34
16 | Cc1ccc(C2=C(c3ccc(O[C@H]4CCN(CCCF)C4)nc3)c3ccc(O)cc3SCC2)c(Cl)c1 [Example 206, 4-(2-chloro-4-methyl-phenyl)-5-[6-[(3S)-1-(3-fluoropropyl)pyrrolidin-3-yl]oxy-3-pyridyl]-2,3-dihydro-1-benzothiepin-8-ol] |  |  |  | 0.3 | 4 | 0.7 | 0.4 | 85 | 0.7 | 13 | 9
